In brackets after ≈: the same amount, converted by molar mass. Read-outs that look alike come from different tables or passages of the source.
How the values were obtained:
Assay type in all cases: cell-based
[1] = test system: F. varium KYA 8501; assay: MIC, in vitro antibacterial activity (standard strains); details: Fusobacterium varium, KYA8501; F. varium KYA 8501, 10^6 cells/ml, Gram -; read-out: MIC
[2] = test system: Serratia marcescens IID 618; assay: as above; details: IID618; Serratia marcescens IID 618, 10^6 cells/ml, Gram -
[3] = test system: Fusobacterium necrophorum S-45; assay: as above; details: S45; Fusobacterium necrophorum S-45, 10^6 cells/ml, Gram -
[4] = test system: S. epidermidis IID 866; assay: as above; details: Staphylococcus epidermidis, IID866; S. epidermidis IID 866, 10^6 cells/ml, Gram +
[5] = test system: S. epidermidis; assay: MIC, in vitro antibacterial activity (clinical isolates); details: Staphylococcus epidermidis, No. of strains 10
[6] = test system: H. influenzae; assay: as above; details: Haemophilus influenzae, No. of strains 26
[7] = test system: Streptococcus pyogenes (S-8); assay: MIC, in vitro antibacterial activity (standard strains); details: Streptococcus pyogenes (S-8), 10^6 cells/ml, Gram +; read-out: MIC
[8] = test system: Eubacterium lentum GAI 5242; assay: as above; details: Eggerthella lenta, GAI5242; Eubacterium lentum GAI 5242, 10^6 cells/ml, Gram +
[9] = test system: Acinetobacter sp.; assay: MIC, in vitro antibacterial activity (clinical isolates); details: clinical isolates Acinetobacter sp., No. of strains 13; read-out: MIC
[10] = test system: Pseudomonas aeruginosa V-1; assay: MIC, in vitro antibacterial activity (standard strains); details: V1; Pseudomonas aeruginosa V-1, 10^6 cells/ml, Gram -
[11] = test system: S. pneumoniae IID 552; assay: as above; details: Streptococcus pneumoniae, IID552; S. pneumoniae IID 552, 10^6 cells/ml, Gram +; read-out: MIC
[12] = test system: P. mirabilis IID 994; assay: as above; details: Proteus mirabilis, IID994
[13] = test system: Propionibacterium acens 11828; assay: as above; details: Propionibacterium acens 11828, 10^6 cells/ml, Gram +
[14] = test system: E. faecalis; assay: MIC, in vitro antibacterial activity (clinical isolates); details: Enterococcus faecalis, No. of strains 5
[15] = test system: Bacillus subtilis PCI 219; assay: MIC, in vitro antibacterial activity (standard strains); details: PCI219; Bacillus subtilis PCI 219, 10^6 cells/ml, Gram +
[16] = test system: P. aeruginosa IFO 12689
[17] = test system: C. ramosum; assay: MIC, in vitro antibacterial activity (standard strains); details: Thomasclavelia ramosa, 10^6 cells/ml, Gram +
[18] = test system: Salmonella enteritidis IID 604; assay: as above; details: Salmonella enterica
[19] = test system: Alcaligenes faecalis 0104002; assay: as above; details: Alcaligenes faecalis 0104002, 10^6 cells/ml, Gram -; read-out: MIC
[20] = test system: E. faecalis IID 682; assay: as above; details: Enterococcus faecalis, IID682; E. faecalis IID 682, 10^6 cells/ml, Gram +
[21] = test system: B. catarrhalis; assay: MIC, in vitro antibacterial activity (clinical isolates); details: Moraxella catarrhalis; clinical isolates B. catarrhalis, No. of strains 21; read-out: MIC
[22] = test system: Acinetobacter anitratus IID 876; assay: MIC, in vitro antibacterial activity (standard strains); details: Acinetobacter calcoaceticus, IID876; Acinetobacter anitratus IID 876, 10^6 cells/ml, Gram -
[23] = test system: E. cloacae; assay: MIC, in vitro antibacterial activity (clinical isolates); details: Enterobacter cloacae
[24] = test system: Proteus vulgaris IFO 3167; assay: MIC, in vitro antibacterial activity (standard strains); details: Proteus vulgaris, IFO3167
[25] = test system: S. aureus; assay: MIC, in vitro antibacterial activity (clinical isolates); details: Staphylococcus aureus, No. of strains 21
Procedure: (§1) Minimal inhibitory concentrations (MICs) were determined in accordance with the method recommended by Japan Society of Chemotherapy.

[26] = test system: E. coli; assay: as above; details: Escherichia coli, No. of strains 25
Procedure: as §1

[27] = test system: K. pneumoniae 1-220S; assay: MIC, in vitro antibacterial activity (standard strains); details: Klebsiella pneumoniae, 1220S; K. pneumoniae 1-220S, 10^6 cells/ml, Gram -; read-out: MIC
[28] = test system: Pst. microns UPI 5464-1; assay: as above; details: Pst. microns UPI 5464-1, 10^6 cells/ml, Gram +
[29] = test system: MR-S. aureus; assay: MIC, in vitro antibacterial activity (clinical isolates); details: Staphylococcus aureus, No. of strains 46
[30] = test system: P. maltophilia; assay: as above; details: Stenotrophomonas maltophilia, No. of strains 9
[31] = test system: Shigella sonnei IID 969; assay: MIC, in vitro antibacterial activity (standard strains); details: IID969; Shigella sonnei IID 969, 10^6 cells/ml, Gram -
Procedure: as §1

[32] = test system: B. fragilis 8503; assay: as above; details: Bacteroides fragilis; B. fragilis 8503, 10^6 cells/ml, Gram -
[33] = test system: P. mirabilis; assay: MIC, in vitro antibacterial activity (clinical isolates); details: Proteus mirabilis, No. of strains 10
[34] = test system: P. aeruginosa IFO 1210
[35] = test system: N. meningitidis; assay: MIC, in vitro antibacterial activity (clinical isolates); details: Neisseria meningitidis, No. of strains 3
[36] = test system: Bacteroides sp.; assay: as above; details: No. of strains 17
[37] = P. aeruginosa IFO 12689, Conc. of Drugs 2MIC
[38] = P. aeruginosa IFO 12689, Conc. of Drugs 4MIC
[39] = P. aeruginosa IFO 1210, Conc. of Drugs 2MIC
[40] = P. aeruginosa IFO 1210, Conc. of Drugs 4MIC

SMILES | MIC [1] | MIC [2] | MIC [3] | MIC [4] | MIC [5] | MIC [6] | MIC [7] | MIC [8] | MIC [9] | MIC [10] | MIC [11] | MIC [12] | MIC [13] | MIC [14] | MIC [15] | Frequency of spontaneous resistant mutants [16, 37] | Frequency of spontaneous resistant mutants [16, 38] | MIC [17] | MIC [19] | MIC [20] | also measured
NC1CCN(c2c(F)cc3c(=O)c(C(=O)O)cn(C4CC4)c3c2Cl)C1 (stereo not drawn) [Example 25, 7-(3-Amino-l-pyrrolidinyl)-8-chloro-l-cyclopropyl-6-fluoro-1,4-dihydro-4-oxo-3-quinolinecarboxylic acid] | 0.78 µg/mL (≈ 2.13 µM) | 0.05 µg/mL (≈ 0.137 µM) | 0.2 µg/mL (≈ 0.547 µM) | 0.05 µg/mL | 0.05 µg/mL (≈ 0.137 µM) | 0.013 µg/mL (≈ 0.0355 µM) | 0.05 µg/mL (≈ 0.137 µM) | 0.1 µg/mL | 0.1 µg/mL (≈ 0.273 µM) | 0.2 µg/mL (≈ 0.547 µM) | 0.1 µg/mL (≈ 0.273 µM) | 0.0125 µg/mL (≈ 0.0342 µM) | 1.56 µg/mL | 0.2 µg/mL (≈ 0.547 µM) | 0.025 µg/mL | 4.5 × 10^-8 | <6.3 × 10^-10 | 0.78 µg/mL | 0.05 µg/mL (≈ 0.137 µM) | 0.1 µg/mL | MIC [18]: 0.0125 µg/mL (≈ 0.0342 µM); MIC [21]: 0.05 µg/mL (≈ 0.137 µM); MIC [22]: 0.05 µg/mL (≈ 0.137 µM); MIC [23]: 0.013 µg/mL (≈ 0.0355 µM); MIC [24]: 0.0125 µg/mL (≈ 0.0342 µM); MIC [25]: 0.05 µg/mL (≈ 0.137 µM); MIC [26]: 0.013 µg/mL (≈ 0.0355 µM); MIC [27]: 0.05 µg/mL (≈ 0.137 µM); MIC [28]: 0.05 µg/mL; MIC [29]: 0.1 µg/mL (≈ 0.273 µM); MIC [30]: 0.78 µg/mL (≈ 2.13 µM); MIC [31]: 0.0125 µg/mL (≈ 0.0342 µM); MIC [32]: 0.39 µg/mL (≈ 1.07 µM); MIC [33]: 0.05 µg/mL (≈ 0.137 µM); Frequency of spontaneous resistant mutants [34, 39]: <6.7 × 10^-10; Frequency of spontaneous resistant mutants [34, 40]: <6.7 × 10^-10; MIC [35]: 0.006 µg/mL (≈ 0.0164 µM); MIC [36]: 0.1 µg/mL (≈ 0.273 µM)
CC1CN(c2c(F)cc3c(=O)c(C(=O)O)cn(C4CC4)c3c2Cl)CCN1 (stereo not shown) [Ref.2, 8-Chloro-1-cyclopropyl-6-fluoro-1,4-dihydro-7-(3-methyl-1-piperazinyl)-4-oxo-3-quinolinecarboxylic acid] | 3.13 µg/mL (≈ 8.24 µM) | 0.05 µg/mL (≈ 0.132 µM) | 0.39 µg/mL (≈ 1.03 µM) | 0.1 µg/mL | 0.1 µg/mL (≈ 0.263 µM) | 0.025 µg/mL (≈ 0.0658 µM) | 0.39 µg/mL (≈ 1.03 µM) | 0.2 µg/mL | 0.78 µg/mL (≈ 2.05 µM) | 0.2 µg/mL (≈ 0.527 µM) | 0.39 µg/mL (≈ 1.03 µM) | 0.0125 µg/mL (≈ 0.0329 µM) | 3.13 µg/mL | 0.78 µg/mL (≈ 2.05 µM) | 0.025 µg/mL | 5.5 × 10^-7 | <6.3 × 10^-10 | 3.13 µg/mL | 0.2 µg/mL (≈ 0.527 µM) | 0.39 µg/mL | MIC ([18]; Salmonella enteritidis IID 604, 10^6 cells/ml, Gram -, read-out: MIC): 0.05 µg/mL (≈ 0.132 µM); MIC [21]: 0.05 µg/mL (≈ 0.132 µM); MIC [22]: 0.05 µg/mL (≈ 0.132 µM); MIC [23]: 0.05 µg/mL (≈ 0.132 µM); MIC [24]: 0.0125 µg/mL (≈ 0.0329 µM); MIC [25]: 0.1 µg/mL (≈ 0.263 µM); MIC [26]: 0.025 µg/mL (≈ 0.0658 µM); MIC [27]: 0.05 µg/mL (≈ 0.132 µM); MIC [28]: 0.2 µg/mL; MIC [29]: 0.39 µg/mL (≈ 1.03 µM); MIC [30]: 1.56 µg/mL (≈ 4.11 µM); MIC [31]: 0.0125 µg/mL (≈ 0.0329 µM); MIC [32]: 0.78 µg/mL (≈ 2.05 µM); MIC [33]: 0.05 µg/mL (≈ 0.132 µM); Frequency of spontaneous resistant mutants [34, 39]: 7.7 × 10^-8; Frequency of spontaneous resistant mutants [34, 40]: <6.7 × 10^-10; MIC [35]: 0.006 µg/mL (≈ 0.0158 µM); MIC [36]: 0.39 µg/mL (≈ 1.03 µM)

From patent publication EP0195316A1, “Quinolonecarboxylic acid derivatives” (KYORIN PHARMACEUTICAL CO., LTD., priority 1985, dated 1986)
